In PubChem BioAssay (NCI):
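Cultured in 96-well plates, cells were exposed to test compound for 48 hours across five concentrations. Here, GI50 denotes the concentration required for 50% inhibition of growth. Definition used: TGI = concentration required for complete inhibition of growth.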

How the values were obtained:
Test in all cases: inhibition of tumour cell growth, NCI panel, 48 h
SK-MEL-28 melanoma = test system: SK-MEL-28 melanoma
MOLT-4 leukemia = test system: MOLT-4 leukemia
HCT-15 colon = test system: HCT-15 colon
KM12 colon = test system: KM12 colon
M14 melanoma = test system: M14 melanoma
BT-549 breast = test system: BT-549 breast
NCI-H226 lung = test system: NCI-H226 lung
OVCAR-4 ovarian = test system: OVCAR-4 ovarian
OVCAR-8 ovarian = test system: OVCAR-8 ovarian
HL-60(TB) leukemia = test system: HL-60(TB) leukemia

## O=C(Nc1ccc(Cl)cc1C(F)(F)F)C(=O)Nn1c(=S)[nH]c2ccccc2c1=O
SK-MEL-28 melanoma
  TGI: > 100 µM
MOLT-4 leukemia
  TGI: > 100 µM
HCT-15 colon
  TGI: > 100 µM
KM12 colon
  TGI: > 100 µM
M14 melanoma
  TGI: > 100 µM
BT-549 breast
  TGI: > 100 µM
NCI-H226 lung
  TGI: > 100 µM
OVCAR-4 ovarian
  TGI: > 100 µM
OVCAR-8 ovarian
  TGI: > 100 µM
HL-60(TB) leukemia
  TGI: > 100 µM

## CCCCNC(c1ccc(Cl)cc1)C(O)c1ccc(Cl)cc1 (stereo not given)
SK-MEL-28 melanoma
  GI50: 2.06 µM
  TGI: 4.5 µM
MOLT-4 leukemia
  GI50: 1.67 µM
  TGI: 6.67 µM
HCT-15 colon
  GI50: 2.08 µM
  TGI: 5.7 µM
KM12 colon
  GI50: 2.04 µM
  TGI: 5.34 µM
M14 melanoma
  GI50: 1.22 µM
  TGI: 2.9 µM
BT-549 breast
  GI50: 5.63 µM
  TGI: 21.4 µM
NCI-H226 lung
  GI50: 6.58 µM
  TGI: 25.1 µM
OVCAR-4 ovarian
  GI50: 2.87 µM
  TGI: 13.5 µM
OVCAR-8 ovarian
  GI50: 2.51 µM
  TGI: 6.02 µM
HL-60(TB) leukemia
  GI50: 1.02 µM
  TGI: 2.93 µM

## COc1ccc2c(c1)C(=O)c1c-2c(OCCCN(C)C)nc2cc(Br)ccc12
SK-MEL-28 melanoma
  GI50: 1.87 µM
  TGI: 3.74 µM
MOLT-4 leukemia
  GI50: 3.09 µM
  TGI: 18.7 µM
HCT-15 colon
  GI50: 4.75 µM
  TGI: 18.3 µM
KM12 colon
  GI50: 11.4 µM
  TGI: 24.3 µM
M14 melanoma
  GI50: 14.8 µM
  TGI: 29 µM
BT-549 breast
  GI50: 13.5 µM
  TGI: 28 µM
NCI-H226 lung
  GI50: 4.63 µM
  TGI: 18.7 µM
OVCAR-4 ovarian
  GI50: 1.96 µM
  TGI: 5.17 µM
OVCAR-8 ovarian
  GI50: 2.63 µM
  TGI: 6.95 µM
HL-60(TB) leukemia
  GI50: 29.4 µM
  TGI: > 100 µM

## C=C1C(=O)O[C@@H]2/C=C(/C)[C@@H](OC(C)=O)C/C=C(\C)C(O)[C@@H](OC(=O)/C(C)=C\C)C12 (stereo not given in full)
SK-MEL-28 melanoma
  TGI: 32.1 µM
MOLT-4 leukemia
  TGI: 74.6 µM
HCT-15 colon
  TGI: 30.3 µM
KM12 colon
  TGI: > 100 µM
M14 melanoma
  TGI: > 100 µM
BT-549 breast
  TGI: 44.3 µM
NCI-H226 lung
  TGI: > 100 µM
OVCAR-4 ovarian
  TGI: > 100 µM
OVCAR-8 ovarian
  TGI: 75.3 µM
HL-60(TB) leukemia
  TGI: 49.6 µM

## O=C(Nc1n[nH]c2cc(-c3cc(F)ccc3F)ccc12)C1CC1
SK-MEL-28 melanoma
  GI50: > 14.5 µM
  TGI: > 25 µM
MOLT-4 leukemia
  GI50: 14.3 µM
  TGI: > 25 µM
HCT-15 colon
  GI50: 8.39 µM
  TGI: > 25 µM
KM12 colon
  GI50: 8.08 µM
  TGI: > 25 µM
M14 melanoma
  GI50: 13.8 µM
  TGI: > 25 µM
BT-549 breast
  GI50: > 21.7 µM
  TGI: > 25 µM
NCI-H226 lung
  GI50: 18.4 µM
  TGI: > 25 µM
OVCAR-4 ovarian
  GI50: 13.2 µM
  TGI: > 25 µM
OVCAR-8 ovarian
  GI50: > 22 µM
  TGI: > 25 µM
HL-60(TB) leukemia
  GI50: 7.81 µM
  TGI: > 25 µM

## O=C1NC(=NCCc2ccc(Cl)cc2)S/C1=C\c1ccc2ncccc2c1
SK-MEL-28 melanoma
  GI50: > 25 µM
  TGI: > 25 µM
MOLT-4 leukemia
  GI50: 18.8 µM
  TGI: > 25 µM
HCT-15 colon
  GI50: 12.9 µM
  TGI: > 25 µM
KM12 colon
  GI50: > 23 µM
  TGI: > 25 µM
M14 melanoma
  GI50: 25 µM
  TGI: > 25 µM
BT-549 breast
  GI50: 13.9 µM
  TGI: > 25 µM
NCI-H226 lung
  GI50: > 25 µM
  TGI: > 25 µM
OVCAR-4 ovarian
  GI50: 8.94 µM
  TGI: > 25 µM
OVCAR-8 ovarian
  GI50: 12.9 µM
  TGI: > 25 µM
HL-60(TB) leukemia
  GI50: 8.69 µM
  TGI: > 25 µM

## OCc1ccc(N(Cc2ccc(F)cc2)Cc2ccc(F)cc2)cc1Cl
SK-MEL-28 melanoma
  GI50: 13.9 µM
  TGI: 27.6 µM
MOLT-4 leukemia
  GI50: 7.84 µM
  TGI: 30.1 µM
HCT-15 colon
  GI50: 9.88 µM
  TGI: 24.2 µM
KM12 colon
  GI50: 10.5 µM
  TGI: 23.8 µM
M14 melanoma
  GI50: 5.79 µM
  TGI: 20.2 µM
BT-549 breast
  GI50: 13.5 µM
  TGI: 28.4 µM
NCI-H226 lung
  GI50: 0.466 µM
  TGI: 2.03 µM
OVCAR-4 ovarian
  GI50: 3.01 µM
  TGI: 14.7 µM
OVCAR-8 ovarian
  GI50: 12.5 µM
  TGI: 27.8 µM
HL-60(TB) leukemia
  GI50: 14.5 µM
  TGI: 35.4 µM

## COC1=CC(c2ccc[nH]2)=N/C1=C\c1[nH]c(C)c(C(=O)CCCCCCCCC(=O)O[C@H]2CC[C@H]3C4CCc5cc(O)ccc5C4CC[C@]23C)c1C (stereo not given in full)
SK-MEL-28 melanoma
  GI50: 0.841 µM
  TGI: > 50 µM
MOLT-4 leukemia
  GI50: 0.428 µM
  TGI: > 50 µM
HCT-15 colon
  GI50: 1.55 µM
  TGI: > 50 µM
KM12 colon
  GI50: 0.379 µM
  TGI: > 50 µM
M14 melanoma
  GI50: 0.235 µM
  TGI: 2.23 µM
BT-549 breast
  GI50: 0.618 µM
  TGI: > 45.1 µM
NCI-H226 lung
  GI50: 2.99 µM
  TGI: > 11.4 µM
OVCAR-4 ovarian
  GI50: 0.343 µM
  TGI: > 50 µM
OVCAR-8 ovarian
  GI50: 0.378 µM
  TGI: > 50 µM
HL-60(TB) leukemia
  GI50: 0.289 µM
  TGI: > 50 µM

## CCCCCCCC(=O)OCC/C=C/C1OC1C1OC(=O)/C=C\C=C\C(=O)N(C(C)=O)C(=O)/C=C(/C)CCC2OC2C1OC(=O)NC(C)=O (stereo not given)
SK-MEL-28 melanoma
  GI50: 5.12 µM
  TGI: 14.3 µM
MOLT-4 leukemia
  GI50: 10.1 µM
  TGI: > 25 µM
HCT-15 colon
  GI50: 5.13 µM
  TGI: 18.4 µM
KM12 colon
  GI50: 3.88 µM
  TGI: 11.7 µM
M14 melanoma
  GI50: 6.83 µM
  TGI: > 25 µM
BT-549 breast
  GI50: 6.43 µM
  TGI: > 25 µM
NCI-H226 lung
  GI50: 18.9 µM
  TGI: > 25 µM
OVCAR-4 ovarian
  GI50: 7.37 µM
  TGI: > 25 µM
OVCAR-8 ovarian
  GI50: 3.64 µM
  TGI: 16.6 µM
HL-60(TB) leukemia
  GI50: 8.18 µM
  TGI: > 25 µM

## Cc1ccc(/C(=N/Nc2ccc([N+](=O)[O-])cc2)Sc2cc(Cl)c(C)cc2S(N)(=O)=O)cc1
SK-MEL-28 melanoma
  GI50: 3.03 µM
  TGI: 8.9 µM
MOLT-4 leukemia
  GI50: 3.35 µM
  TGI: 12.3 µM
HCT-15 colon
  GI50: 3.64 µM
  TGI: > 49.6 µM
KM12 colon
  GI50: 1.37 µM
  TGI: 3.18 µM
M14 melanoma
  GI50: 1.78 µM
  TGI: 3.85 µM
BT-549 breast
  GI50: 10.4 µM
  TGI: 26 µM
NCI-H226 lung
  GI50: 1.64 µM
  TGI: 3.57 µM
OVCAR-4 ovarian
  GI50: 1.28 µM
  TGI: 3.75 µM
OVCAR-8 ovarian
  GI50: 7.38 µM
  TGI: > 100 µM
HL-60(TB) leukemia
  GI50: 11.9 µM
  TGI: 42.1 µM

## COc1cc(O)ccc1C(=S)SC
SK-MEL-28 melanoma
  TGI: > 100 µM
MOLT-4 leukemia
  TGI: 92.2 µM
HCT-15 colon
  TGI: > 100 µM
KM12 colon
  TGI: > 100 µM
M14 melanoma
  TGI: > 100 µM
BT-549 breast
  TGI: > 100 µM
NCI-H226 lung
  TGI: 76.9 µM
OVCAR-4 ovarian
  TGI: > 100 µM
OVCAR-8 ovarian
  TGI: > 100 µM
HL-60(TB) leukemia
  TGI: > 100 µM

## CSc1nc(Nc2cccc(NC(=O)CCl)c2)c(C#N)c(-c2cccc([N+](=O)[O-])c2)n1
SK-MEL-28 melanoma
  GI50: 2.15 µM
  TGI: 4.28 µM
MOLT-4 leukemia
  GI50: 1.32 µM
  TGI: 6.37 µM
HCT-15 colon
  GI50: 1.66 µM
  TGI: 4.1 µM
KM12 colon
  GI50: 1.93 µM
  TGI: 3.92 µM
M14 melanoma
  GI50: 2.01 µM
  TGI: 6.08 µM
BT-549 breast
  GI50: 1.79 µM
  TGI: 5.68 µM
NCI-H226 lung
  GI50: 2.15 µM
  TGI: 6.32 µM
OVCAR-4 ovarian
  GI50: 2.06 µM
  TGI: 6.77 µM
OVCAR-8 ovarian
  GI50: 2.39 µM
  TGI: 9.37 µM
HL-60(TB) leukemia
  GI50: 1.82 µM
  TGI: 6.48 µM
